For assay [1], the system named is yhcRQP-luxCDABE gene fusion. Put plainly: Bioluminescence activation test in strain DPD2411, LB medium pH 7.0. It counts as cell-based, E. coli. The settings on record: Experiment code A; for Concentration of maximum response: strain DPD2411, LB pH 7.0; for treated RLU: strain DPD2411, at concentration of maximum response; for Ratio: strain DPD2411, treated RLU/control RLU. The source says:
(§1) A derivative of E. coli strain MG1655 (obtained from Prof. Douglas Berg, Washington University School of Medicine, St. Louis, […].) with the yhcS::TN<Kan> mutation was made by P1clr100Cm mediated transduction using phage grown on strain DPD2410 as a donor and selection for kanamycin resistance. The presence of the yhcS::TN<Kan> mutation in one of the resultant transductants, named DPD2433, was confirmed by PCR amplification. Plasmid pDEW655 was moved to E. coli strains MG1655 and DPD2433 by transformation, selecting for Ampicillin resistance to generate strains DPD2436 and DPD2437, respectively. The bioluminescent response of these two strains to pHBA was tested. Aliquots (50 μl) of actively growing cultures at 37° C. in LB medium that had been previously diluted, and from overnight cultures in LB medium with 150 μg/ml Ampicillin were added to 50 μl of LB medium at pH 7.0 containing pHBA as the sodium salt form. Several concentrations of pHBA were tested.
Further characterization of the signals that trigger activation of YhcS, was done using the yhcRQP-luxCDABE gene fusion containing E. coli strains DPD2411 or DPD2436. […] Several weak, aromatic acid molecules in addition to those shown in the Examples above activated expression.

The subject of assay [2] is yhcRQP-luxCDABE gene fusion. Put plainly: LuxArray bioluminescent response, strain DPD2411 (tolC- host). It counts as cell-based, E. coli. To be noted: for Replica 1 normalized RLU / Replica 2 normalized RLU: LB medium; for upregulation of gene fusion lux-a.pk035.c7 in LuxArray profile: pHCA 10 mM and 5 mM, CA 8 mM and 4 mM; for bioluminescent response of the yhcRQP-luxCDABE gene fusion (in words): time points other than the zero time point.

Assay [3] concerns yhcRQP-luxCDABE gene fusion. Put plainly: Bioluminescence response in yhcS+ strain DPD2436 (MG1655 host). It counts as cell-based, E. coli. The settings on record: for Concentration of maximum response: strain DPD2436, LB pH 7.0; for treated RLU: strain DPD2436, at concentration of maximum response; for Ratio: strain DPD2436, treated RLU/control RLU.
Source text: as §1, with “The presence of the yhcS::TN<Kan> mutation in one of the resultant transductants, named DPD2433, was confirmed by PCR amplification.” left out
Further characterization of the signals that trigger activation of YhcS, was done using the yhcRQP-luxCDABE gene fusion containing E. coli strains DPD2411 or DPD2436.

Assay [4] concerns yciG-luxCDABE gene fusion. The settings on record: for activation of acid responsive yciG-luxCDABE gene fusion (in words): concentrations tested, 100 minutes; for RLU at 100 minutes: yciG-luxCDABE, pH 7.0. The source says: (§2) Three E. coli strains, each in the same host strain but carrying different, plasmid-borne, promoter-luxCDABE fusions were used. Strain DPD2411 contains a yhcRQP-luxCDABE gene fusion as described in Example 2. Strain DPD2084 contains a yciG-luxCDABE gene fusion that has been previously described. Strain DPD3282 contains a lysU-luxCDABE gene fusion that was part of the LuxA collection of gene fusions, described in Example 2. The plasmid in this strain, pDEW558, contains an E. coli chromosomal segment between nucleotides 4350990 and 4353107 according to the E. coli genomic sequence; the orientation of the chromosomal segment is such that the lysU promoter region controls expression of luxCDABE. Each of these three strains was grown overnight in Vogel-Bonner minimal medium with 0.4% glucose as the carbon source and supplemented with L-proline, L-lysine, uracil and 25 μg/ml Ampicillin. The overnight cultures were diluted into the same medium except lacking Ampicillin and incubated at 37° C. until in mid-exponential growth. Aliquots (50 μl) of these actively growing cultures were added to 50 μl of the same medium at pH 7.0 without Ampicillin but containing various concentrations of sodium acetate or sodium salicylate in the wells of a 96 well, white microplate (Microlite, Dynex Technologies). Immediately after adding the cell culture, the bioluminescence was quantitated in a microplate luminometer in the kinetic mode.

Assay [5] relates to yhcRQP-luxCDABE gene fusion. To be noted: for activation of expression of yhcRQP-luxCDABE (in words): concentrations tested, 100 minutes; for RLU at 100 minutes: yhcRQP-luxCDABE, pH 7.0.
Source text: as §2

Assay [6] deals with lysU-luxCDABE gene fusion. To be noted: for activation of acid responsive lysU-luxCDABE gene fusion (in words): concentrations tested, 100 minutes; for RLU at 100 minutes: lysU-luxCDABE, pH 7.0.
Source text: as §2

Where two headings read alike, the source gives them in different places.

As to `O=C(O)c1cccc2ccccc12` [1-napthoate], in assay [1], the “Concentration of maximum response” value is given as 2.5 mM, the “treated RLU” value is 29.662 RLU and the Ratio stood at 132.
With `O=C(O)C=Cc1ccccc1` [CA, cinnamic acid], the “Replica 1 normalized RLU” value in assay [2] (4 mM CA, 0 min) is on record as 0.026 RLU; in assay [2] (4 mM CA, 45 min), 4.092 RLU; in assay [2] (4 mM CA, 90 min), 5.845 RLU; in assay [2] (4 mM CA, 135 min), 5.394 RLU; in assay [2] (8 mM CA, 0 min), 0.022 RLU; in assay [2] (8 mM CA, 45 min), 4.937 RLU. In addition, the “Replica 1 normalized RLU” value in assay [2] (8 mM CA, 90 min) was found to be 8.379 RLU; in assay [2] (8 mM CA, 135 min), 6.981 RLU. Besides, the “Replica 2 normalized RLU” value was 0.062 RLU in assay [2] (4 mM CA, 0 min); 2.928 RLU in assay [2] (4 mM CA, 45 min); 4.951 RLU in assay [2] (4 mM CA, 90 min); 3.678 RLU in assay [2] (4 mM CA, 135 min); 0.054 RLU in assay [2] (8 mM CA, 0 min); 3.405 RLU in assay [2] (8 mM CA, 45 min). In addition, the “Replica 2 normalized RLU” value in assay [2] (8 mM CA, 90 min) worked out at 6.193 RLU; in assay [2] (8 mM CA, 135 min), 5.746 RLU. For the same molecule, in assay [2], the “upregulation of gene fusion lux-a.pk035.c7 in LuxArray profile” value is “several hundred-fold upregulated”. Besides, the “bioluminescent response of the yhcRQP-luxCDABE gene fusion (in words)” value (“bioluminescent response” for short) in assay [2] is recorded as “dramatic upregulation”.
For `O=C([O-])c1ccccc1.[Na+]` [Sodium benzoate], in assay [3] (Experiment code B), the “Concentration of maximum response” value was 6.2 mM, the “treated RLU” value is 3.759 RLU and the Ratio is 13. For the same molecule, in assay [3] (Experiment code C), the “Concentration of maximum response” value amounted to 12.5 mM, the “treated RLU” value worked out at 8.093 RLU and the Ratio is on record as 12.
With `O=C([O-])c1ccc(O)cc1.[Na+]` [Sodium pHBA], the “Concentration of maximum response” value in assay [1] stood at 25 mM; in assay [3] (Experiment code C), 50 mM; in assay [3] (Experiment code D), 50 mM. The figures for the “treated RLU” value in assay [1], in assay [3] (Experiment code C) and in assay [3] (Experiment code D) were 69.678 RLU, 91.658 RLU and 48.643 RLU, respectively. Further, the values for the Ratio in assay [1], in assay [3] (Experiment code C) and in assay [3] (Experiment code D) were 302, 145 and 248, respectively.
`O=C([O-])c1ccccc1O.[Na+]` [Sodium salicylate]: the “Concentration of maximum response” value in assay [3] (Experiment code D) came out at 6.2 mM. Also, the “treated RLU” value in assay [3] (Experiment code D) was 14.703 RLU. Also, the Ratio in assay [3] (Experiment code D) was determined as 77. Besides, in assay [4], the “activation of acid responsive yciG-luxCDABE gene fusion (in words)” value was “did not increase expression”. The “RLU at 100 minutes” value in assay [4] (0.6 mM salicylate) is 0.19 RLU; in assay [4] (5.0 mM salicylate), 0.13 RLU; in assay [5] (0.6 mM salicylate), 7.9 RLU; in assay [5] (5.0 mM salicylate), 26.0 RLU; in assay [6] (0.6 mM salicylate), 1.3 RLU; in assay [6] (5.0 mM salicylate), 0.89 RLU. The “activation of expression of yhcRQP-luxCDABE (in words)” value in assay [5] is listed as “upregulated expression”. In assay [6], the “activation of acid responsive lysU-luxCDABE gene fusion (in words)” value is on record as “did not increase expression”.
Turning to `CC(=O)[O-].[Na+]` [acetate, sodium acetate], the “activation of acid responsive yciG-luxCDABE gene fusion (in words)” value in assay [4] was “did activate”. Besides, the “RLU at 100 minutes” value in assay [4] (80 mM acetate) stood at 0.35 RLU; in assay [4] (160 mM acetate) it was 0.80 RLU; in assay [5] (80 mM acetate), 0.14 RLU; in assay [5] (160 mM acetate) it was 0.08 RLU; in assay [6] (80 mM acetate) it was 1.4 RLU; in assay [6] (160 mM acetate) it was 6.0 RLU. Also, the “activation of expression of yhcRQP-luxCDABE (in words)” value in assay [5] is “did not activate expression”. Also, in assay [6], the “activation of acid responsive lysU-luxCDABE gene fusion (in words)” value was “did activate”.
As to `CCO` [ethanol], the “Replica 1 normalized RLU” value was determined as 0.024 RLU in assay [2] (3% ethanol, 0 min); 0.024 RLU in assay [2] (3% ethanol, 45 min); 0.022 RLU in assay [2] (3% ethanol, 90 min); 0.012 RLU in assay [2] (3% ethanol, 135 min); 0.022 RLU in assay [2] (5% ethanol, 0 min); 0.014 RLU in assay [2] (5% ethanol, 45 min). Moreover, the “Replica 1 normalized RLU” value in assay [2] (5% ethanol, 90 min) came out at 0.022 RLU; in assay [2] (5% ethanol, 135 min) it was 0.015 RLU. Further, the “Replica 2 normalized RLU” value in assay [2] (3% ethanol, 0 min) stood at 0.038 RLU; in assay [2] (3% ethanol, 45 min), 0.029 RLU; in assay [2] (3% ethanol, 90 min), 0.026 RLU; in assay [2] (3% ethanol, 135 min), 0.014 RLU; in assay [2] (5% ethanol, 0 min), 0.037 RLU; in assay [2] (5% ethanol, 45 min), 0.017 RLU. In addition, the “Replica 2 normalized RLU” value in assay [2] (5% ethanol, 90 min) worked out at 0.017 RLU; in assay [2] (5% ethanol, 135 min), 0.014 RLU. Moreover, the “bioluminescent response” value in assay [2] is reported as “does not induce increased bioluminescence”.
Regarding `O=C(O)C=Cc1ccc(O)cc1` [pHCA, para-hydroxycinnamic acid], the “Replica 1 normalized RLU” value in assay [2] (5 mM pHCA, 0 min) amounted to 0.056 RLU; in assay [2] (5 mM pHCA, 45 min), 10.695 RLU; in assay [2] (5 mM pHCA, 90 min), 14.276 RLU; in assay [2] (5 mM pHCA, 135 min), 13.533 RLU; in assay [2] (10 mM pHCA, 0 min) it was 0.056 RLU; in assay [2] (10 mM pHCA, 45 min), 9.094 RLU. Moreover, the “Replica 1 normalized RLU” value stood at 14.314 RLU in assay [2] (10 mM pHCA, 90 min) and 15.283 RLU in assay [2] (10 mM pHCA, 135 min). Also, the “Replica 2 normalized RLU” value is 0.043 RLU in assay [2] (5 mM pHCA, 0 min); 9.325 RLU in assay [2] (5 mM pHCA, 45 min); 14.754 RLU in assay [2] (5 mM pHCA, 90 min); 10.587 RLU in assay [2] (5 mM pHCA, 135 min); 0.034 RLU in assay [2] (10 mM pHCA, 0 min); 7.31 RLU in assay [2] (10 mM pHCA, 45 min). The “Replica 2 normalized RLU” value amounted to 11.164 RLU in assay [2] (10 mM pHCA, 90 min) and 12.867 RLU in assay [2] (10 mM pHCA, 135 min). Further, the “upregulation of gene fusion lux-a.pk035.c7 in LuxArray profile” value in assay [2] is given as “several hundred-fold upregulated”. In assay [2], the “bioluminescent response” value is “dramatic upregulation”.
